Laboratory results published in patent US12102648B2, “Orally-bioavailable nucleoside analogs” (priority 2021, dated 2024).
Where two headings read alike, the source gives them in different places.

Experiment: in vitro
Format: in vitro ADME
Settings: human
Method in brief: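 Permeability measured in both directions across 19-day Caco-2 layers with TEER above 600 […], incubated at 37° C without shaking; donor and receiver sampled at 10 and 90 min for LC/MS/MS. Derived values: Papp (cm/s), efflux ratio, recovery.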

[1] = Caco-2 monolayer, apical to basolateral, 90-minute incubation, read-out: Papp, A-B
[2] = Caco-2 monolayer, basolateral to apical, 90-minute incubation, read-out: Papp, B-A
[3] = Caco-2 monolayer, ER>2 indicates potential efflux transporter substrate, read-out: ER (efflux ratio)

| Structure (SMILES) | Papp A→B at 90 min (Caco-2) [×10⁻⁶ cm/s] | Papp B→A at 90 min (Caco-2) [×10⁻⁶ cm/s] | efflux ratio at 90 min (Caco-2) | Papp A→B at 90 min [1] [×10⁻⁶ cm/s] | Papp B→A at 90 min [2] [×10⁻⁶ cm/s] | efflux ratio at 90 min [3] |
| --- | --- | --- | --- | --- | --- | --- |
| C[C@H](C(=O)OC[C@H]1O[C@@](C#N)(c2ccc3c(N)ncnn23)[C@H](O)[C@@H]1O)C1CCCCC1 [Compound 281, ((2R,3S,4R,5R)-5-(4-aminopyrrolo[2,1-f][1,2,4]triazin-7-yl)-5-cyano-3,4-dihydroxytetrahydrofuran-2-yl)methyl (S)-2-cyclohexylpropanoate] | 13 | 29 | 2.3 |  |  |  |
| CCCCC(=O)Nc1ncnn2c([C@]3(C#N)O[C@H](COC(=O)CC)[C@@H](O)[C@H]3O)ccc12 [Compound 282, ((2R,3S,4R,5R)-5-cyano-3,4-dihydroxy-5-(4-pentanamidopyrrolo[2,1-f][1,2,4]triazin-7-yl)tetrahydrofuran-2-yl)methyl propionate] |  |  |  | 0.72 | 4.1 | 5.6 |
| CCCCC(=O)Nc1ncnn2c([C@]3(C#N)O[C@H](COC(=O)CC(C)C)[C@@H](O)[C@H]3O)ccc12 [Compound 283, ((2R,3S,4R,5R)-5-cyano-3,4-dihydroxy-5-(4-pentanamidopyrrolo[2,1-f][1,2,4]triazin-7-yl)tetrahydrofuran-2-yl)methyl 3-methylbutanoate] | 3 | 1 | 0.34 |  |  |  |
| CCCCC(=O)Nc1ncnn2c([C@]3(C#N)O[C@H](COC(=O)CC4CCCCC4)[C@@H](O)[C@H]3O)ccc12 [Compound 284, ((2R,3S,4R,5R)-5-cyano-3,4-dihydroxy-5-(4-pentanamidopyrrolo[2,1-f][1,2,4]triazin-7-yl)tetrahydrofuran-2-yl)methyl 2-cyclohexylacetate] | 1.7 | 0.95 | 0.56 |  |  |  |
| N#C[C@@]1(c2ccc3c(NC(=O)c4ccccc4)ncnn23)O[C@H](COC(=O)CC2CCCCC2)[C@@H](O)[C@H]1O [Compound 285, ((2R,3S,4R,5R)-5-(4-benzamidopyrrolo[2,1-f][1,2,4]triazin-7-yl)-5-cyano-3,4-dihydroxytetrahydrofuran-2-yl)methyl 2-cyclohexylacetate] | 1.1 | 0.9 | 0.83 |  |  |  |
| N#C[C@@]1(c2ccc3c(N)ncnn23)O[C@H](COC(=O)CC2(N)CCCCC2)[C@@H](O)[C@H]1O [Compound 286, ((2R,3S,4R,5R)-5-(4-aminopyrrolo[2,1-f][1,2,4]triazin-7-yl)-5-cyano-3,4-dihydroxytetrahydrofuran-2-yl)methyl 2-(1-aminocyclohexyl)acetate] | 0.01 | 0.4 | 67 |  |  |  |
| CCC(=O)O[C@@H]1[C@@H](COC(C)=O)O[C@@H](n2cnc3c(NC)nc(N)nc32)[C@]1(C)F [Compound 329, (2R,3R,4R,5R)-2-(acetoxymethyl)-5-(2-amino-6-(methylamino)-9H-purin-9-yl)-4-fluoro-4-methyltetrahydrofuran-3-yl propionate] | 16 | 18 | 1.1 |  |  |  |
| CCC(=O)Nc1nc(NC)c2ncn([C@@H]3O[C@H](COC(C)=O)[C@@H](OC(=O)CC)[C@@]3(C)F)c2n1 [Compound 331, (2R,3R,4R,5R)-2-(acetoxymethyl)-4-fluoro-4-methyl-5-(6-(methylamino)-2-propionamido-9H-purin-9-yl)tetrahydrofuran-3-yl propionate] | 7.9 | 16 | 2.1 |  |  |  |
| CNc1nc(NC(=O)CC(C)C)nc2c1ncn2[C@@H]1O[C@H](COC(C)=O)[C@@H](OC(=O)CC(C)C)[C@@]1(C)F [Compound 332, (2R,3R,4R,5R)-2-(acetoxymethyl)-4-fluoro-4-methyl-5-(6-(methylamino)-2-(3-methylbutanamido)-9H-purin-9-yl)tetrahydrofuran-3-yl 3-methylbutanoate] | 11 | 2.6 | 0.22 |  |  |  |
| CNc1nc(NC(=O)Cc2ccccc2)nc2c1ncn2[C@@H]1O[C@H](COC(C)=O)[C@@H](O)[C@@]1(C)F [Compound 334, ((2R,3R,4R,5R)-4-fluoro-3-hydroxy-4-methyl-5-(6-(methylamino)-2-(2-phenylacetamido)-9H-purin-9-yl)tetrahydrofuran-2-yl)methyl acetate] |  |  |  | 0.76 | 19 | 25 |

Now from value to compound, other results behind:

| Papp A→B at 90 min (Caco-2) [×10⁻⁶ cm/s] | Papp B→A at 90 min (Caco-2) [×10⁻⁶ cm/s] | efflux ratio at 90 min (Caco-2) | Structure (SMILES) | Papp A→B at 90 min [1] [×10⁻⁶ cm/s] | Papp B→A at 90 min [2] [×10⁻⁶ cm/s] | efflux ratio at 90 min [3] |
| --- | --- | --- | --- | --- | --- | --- |
| 5.2 | 13 | 2.4 | COC1(CC(=O)OC[C@H]2O[C@@](C#N)(c3ccc4c(N)ncnn34)[C@H](O)[C@@H]2O)CCCCC1 [Compound 287, ((2R,3S,4R,5R)-5-(4-aminopyrrolo[2,1-f][1,2,4]triazin-7-yl)-5-cyano-3,4-dihydroxytetrahydrofuran-2-yl)methyl 2-(1-methoxycyclohexyl)acetate] |  |  |  |
| 0.91 | 6.9 | 7.7 | CCCCC(=O)Nc1ncnn2c([C@]3(C#N)O[C@H](COC(C)=O)[C@@H](O)[C@H]3O)ccc12 [Compound 288, ((2R,3S,4R,5R)-5-cyano-3,4-dihydroxy-5-(4-pentanamidopyrrolo[2,1-f][1,2,4]triazin-7-yl)tetrahydrofuran-2-yl)methyl acetate] |  |  |  |
| 6.4 | 25 | 3.8 | N#C[C@@]1(c2ccc3c(N)ncnn23)O[C@H](COC(=O)C2(c3ccccc3)CC2)[C@@H](O)[C@H]1O [Compound 289, ((2R,3S,4R,5R)-5-(4-aminopyrrolo[2,1-f][1,2,4]triazin-7-yl)-5-cyano-3,4-dihydroxytetrahydrofuran-2-yl)methyl 1-phenylcyclopropane-1-carboxylate] |  |  |  |
| 11 | 17 | 1.6 | CN(C(=O)CC1CCCCC1)c1nc(N)nc2c1ncn2[C@@H]1O[C@H](COC(=O)CC2CCCCC2)[C@@H](O)[C@@]1(C)F [Compound 291, ((2R,3R,4R,5R)-5-(2-amino-6-(2-cyclohexyl-N-methylacetamido)-9H-purin-9-yl)-4-fluoro-3-hydroxy-4-methyltetrahydrofuran-2-yl)methyl 2-cyclohexylacetate] |  |  |  |
| 2 | 1 | 0.5 | CNc1nc(NC(=O)CC2CCCCC2)nc2c1ncn2[C@@H]1O[C@H](COC(=O)CC2CCCCC2)[C@@H](O)[C@@]1(C)F [Compound 292, ((2R,3R,4R,5R)-5-(2-(2-cyclohexylacetamido)-6-(methylamino)-9H-purin-9-yl)-4-fluoro-3-hydroxy-4-methyltetrahydrofuran-2-yl)methyl 2-cyclohexylacetate] |  |  |  |
| 23 | 6.5 | 0.28 | CNc1nc(N)nc2c1ncn2[C@@H]1O[C@H](COC(=O)CC(C)C)[C@@H](OC(=O)CC(C)C)[C@@]1(C)F [Compound 312, (2R,3R,4R,5R)-5-(2-amino-6-(methylamino)-9H-purin-9-yl)-4-fluoro-4-methyl-2-(((3-methylbutanoyl)oxy)methyl)tetrahydrofuran-3-yl 3-methylbutanoate] |  |  |  |
| 0.54 | 7 | 13 | CCC(=O)Nc1nc(NC)c2ncn([C@@H]3O[C@H](COC(C)=O)[C@@H](O)[C@@]3(C)F)c2n1 [Compound 330, ((2R,3R,4R,5R)-4-fluoro-3-hydroxy-4-methyl-5-(6-(methylamino)-2-propionamido-9H-purin-9-yl)tetrahydrofuran-2-yl)methyl acetate] |  |  |  |
